Laboratory results published in the supplement of paper PMC10307832.

How the values were obtained:
Test in all cases: relative viability (nuclei count vs DMSO), 5 days (fraction); higher = more cells survive
[1] = compound: C[C@@H](N)c1ccc(C(=O)Nc2ccnc3[nH]ccc23)cc1 + Nc1ncn([C@H]2C[C@H](O)[C@@H](CO)O2)c(=O)n1 [Decitabine] (partner 2 µM)
Method in brief: (§1)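 Lung cancer cell lines, seeded in 1536-well plates, were treated the following day by pin tool with a single drug or with five library-drug doses (not always all listed) in √10 steps on top of a fixed anchor-drug dose. Cells were fixed and nuclei stained in one step after 5 days, and nuclei were counted. Relative viability is the nuclei count for treated wells divided by that for vehicle wells, reported as medians of duplicate plates.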

[2] = compound: C1CNCCC1C2=CC(=NN2)C3=CC=NC=C3 + COc1cc2c(Oc3ccc(NC(=O)C4(C(=O)Nc5ccc(F)cc5)CC4)cc3F)ccnc2cc1OCCCN1CCOCC1 [Foretinib] (partner 0.25 µM)
Method in brief: as §1

[3] = compound: C[C@@H](N)c1ccc(C(=O)Nc2ccnc3[nH]ccc23)cc1 + Cc1cc(Nc2cc(N3CCN(C)CC3)nc(Sc3ccc(NC(=O)C4CC4)cc3)n2)n[nH]1 [Tozasertib] (partner 0.1 µM)
Method in brief: as §1

[4] = compound: C1CNCCC1C2=CC(=NN2)C3=CC=NC=C3 + CS(=O)(=O)CCNCc1ccc(-c2ccc3ncnc(Nc4ccc(OCc5cccc(F)c5)c(Cl)c4)c3c2)o1 [Lapatinib] (partner 2 µM)
Method in brief: as §1

| Cell Line | relative viability ([1]; first compound 0.04 µM) | relative viability ([1]; first compound 0.1265 µM) | relative viability ([1]; first compound 0.4 µM) | relative viability ([1]; first compound 1.265 µM) | relative viability ([1]; first compound 4 µM) | relative viability ([2]; first compound 0.08 µM) | relative viability ([2]; first compound 0.8 µM) | relative viability ([2]; first compound 2.53 µM) | relative viability ([2]; first compound 8 µM) | relative viability ([3]; first compound 0.04 µM) | relative viability ([3]; first compound 0.1265 µM) | relative viability ([3]; first compound 0.4 µM) | relative viability ([3]; first compound 1.265 µM) | relative viability ([3]; first compound 4 µM) | relative viability ([4]; first compound 0.08 µM) | relative viability ([4]; first compound 0.8 µM) | relative viability ([4]; first compound 2.53 µM) | relative viability ([4]; first compound 8 µM) |
| --- | --- | --- | --- | --- | --- | --- | --- | --- | --- | --- | --- | --- | --- | --- | --- | --- | --- | --- |
| 201T | 0.846 | 0.853 | 0.851 | 0.979 | 0.941 | 1.08 | 1.21 | 1.3 | 1.03 | 0.945 | 0.897 | 0.977 | 1.08 | 1.04 | 0.975 | 0.978 | 0.994 | 0.986 |
| A549 | 0.343 | 0.254 | 0.374 | 0.316 | 0.286 | 0.932 | 0.979 | 1.03 | 1.01 |  |  |  |  |  | 0.863 | 1.02 | 1.14 | 0.952 |
| A-427 | 0.499 | 0.564 | 0.549 | 0.517 | 0.545 | 1.11 | 1.21 | 1.13 | 1.04 | 0.26 | 0.185 | 0.237 |  | 0.22 | 1.12 | 1.15 | 0.971 | 0.978 |
| ABC-1 | 1.2 | 0.895 | 1.13 | 1.46 | 1.46 | 1.04 | 1.1 | 1.46 | 1.35 | 0.173 | 0.158 | 0.203 |  | 0.164 | 1.14 | 1.25 | 1.09 | 1.38 |
| BEN | 0.53 | 0.732 | 0.822 | 0.757 | 0.568 | 0.548 | 0.752 | 0.646 | 0.692 | 0.466 | 0.432 | 0.53 | 0.484 | 0.48 | 0.594 | 0.571 | 0.939 | 0.761 |
| CAL-12T |  |  |  |  |  | 1.09 | 1.11 | 1.22 | 1.06 | 0.366 | 0.392 | 0.413 | 0.443 | 0.283 | 0.714 | 0.613 | 0.811 | 0.666 |
| Calu-6 |  |  |  |  |  | 0.951 | 0.912 | 0.781 | 0.914 |  |  |  |  |  | 0.987 | 1.17 | 1.12 | 1.05 |
| ChaGo-K-1 | 0.569 | 0.526 | 0.548 | 0.529 | 0.456 | 0.997 | 1.01 | 0.886 | 0.923 | 0.223 | 0.219 | 0.221 | 0.246 | 0.21 |  |  |  |  |
| EBC-1 |  |  |  |  |  | 0.116 | 0.111 | 0.0919 | 0.135 |  |  |  |  |  | 0.202 | 0.219 | 0.209 | 0.239 |
| HCC-44 | 0.862 | 0.981 | 0.971 | 0.893 | 0.92 |  |  |  |  | 0.793 | 0.809 | 1.15 | 1.2 | 0.789 | 1.04 | 1.14 | 1.04 | 0.966 |
| IA-LM |  |  |  |  |  | 1.09 | 1.37 | 1.19 | 1.26 |  |  |  |  |  | 0.809 | 1.13 | 0.926 | 0.898 |
| LCLC-103H | 0.652 | 0.69 | 0.724 | 0.716 | 0.652 | 0.777 | 0.695 | 0.72 | 0.883 | 0.502 | 0.482 | 0.51 | 0.421 | 0.388 |  |  |  |  |
| NCI-H441 | 0.276 | 0.279 | 0.225 | 0.258 | 0.238 | 0.945 | 1.18 | 1.12 | 0.834 | 0.742 | 0.716 | 0.65 |  | 0.627 |  |  |  |  |
| NCI-H522 | 0.704 | 0.683 | 0.727 | 0.694 | 0.715 |  |  |  |  | 0.591 | 0.476 | 0.512 | 0.509 | 0.55 |  |  |  |  |
| NCI-H1299 |  |  |  |  |  | 1.1 | 1.08 | 1.07 | 1.08 |  |  |  |  |  | 0.96 | 0.948 | 1 | 0.891 |
| NCI-H1563 |  |  |  |  |  | 0.727 | 0.94 | 0.943 | 0.973 |  |  |  |  |  | 0.747 | 0.885 | 0.896 | 1.03 |
| NCI-H1623 |  |  |  |  |  | 0.891 | 0.702 | 1.03 | 0.924 | 0.443 | 0.452 | 0.459 | 0.475 | 0.462 |  |  |  |  |
| NCI-H1648 | 0.746 | 0.545 | 0.762 | 0.754 | 0.815 |  |  |  |  | 0.655 | 0.513 | 0.984 | 1.02 | 0.957 |  |  |  |  |
| NCI-H1703 |  |  |  |  |  | 0.389 | 0.355 | 0.349 | 0.348 |  |  |  |  |  | 1.03 | 1.51 | 1.12 | 1.03 |
| NCI-H1792 | 0.571 | 0.558 | 0.489 | 0.675 | 0.462 |  |  |  |  |  |  |  |  |  | 0.893 | 0.851 | 0.913 | 0.788 |
| NCI-H2228 |  |  |  |  |  | 0.871 | 0.929 | 0.939 | 0.911 | 0.252 | 0.315 | 0.267 | 0.299 | 0.228 | 0.926 | 1.06 | 1.62 | 1.19 |
| NCI-H2342 | 0.758 | 0.624 | 0.809 | 0.798 | 0.746 | 0.899 | 1.04 | 1.21 | 1.29 | 0.496 | 0.382 | 0.493 | 0.495 | 0.525 |  |  |  |  |
| SW 900 | 0.412 | 0.43 | 0.43 | 0.509 | 0.421 | 0.899 | 1.01 | 0.856 | 1.01 | 0.551 | 0.561 | 0.551 | 0.663 | 0.714 |  |  |  |  |
